{"source": "patent US4874856A", "about": "“3-(substituted)propenyl-7-(aminothiazolylacetamido) ceph-3-em-4-carboxylic acids and esters thereof” (Bristol-Myers Company, priority 1987, dated 1989)", "key": {"[1]": {"test_system": "CETresistant E. coli (3) and K. pneumoniae (2)", "test": "In vitro MIC, two-fold serial agar dilution in Mueller-Hinton agar, GnIb strains", "format": "cell-based", "conditions": "Escherichia coli, 5 strains, read-out: Geometric mean of MIC, GnIb", "experimental": "The in vitro antibacterial activity of the parent cephalosporanic acids of Formula I wherein R^4 is hydrogen is shown in Table 1 in terms of geometric mean of the Minimum Inhibitory Concentrations (MIC's) which were determined by the two-fold serial agar dilution method in Mueller-Hinton agar against 25 strains of test organisms in five groups.\nGnIb: CETresistant E. coli (3) and K. pneumoniae (2)"}, "[2]": {"test_system": "clinically important pathogens", "test": "Comparison of in vitro antibacterial activities of Compound 29 and FK-482 (Table 6)", "format": "cell-based", "conditions": "Thirty-seven organisms", "excerpt": "Table 6 is a comparison of the in vitro antibacterial activities of Compound 29 and the vinyl homolog thereof FK-482 against clinically important pathogens. Thirty-seven organisms were more than 4-fold more susceptible to Compound 29 than to FK-482. FK-482 has the following formula and is described by Takaya, et al. in U.S. Pat. No. 4,559,334 patented Dec. 17, 1985 (filed Oct. 20, 1983). [drawing 14]\nMueller-Hinton agar Inoculum size; 10^6 cells/ml"}}}
{"compound": "C/C=C\\C1=C(C(=O)O)N2C(=O)[C@@H](NC(=O)/C(=N\\O)c3csc(N)n3)[C@H]2SC1", "note": "[Compound 29, 7β-[(Z)-2-(2-aminothiazol-4-yl)-2-(hydroxyimino)acetamido]-3-[(Z)-prop-1-en-1-yl]-3-cephem-4-carboxylic acid]", "values": [{"measurement": "MIC", "setting": "[1]", "value": 0.35, "unit": "µg/mL"}, {"measurement": "more susceptible to Compound 29 than to FK-482", "setting": "[2]", "value": "more than 4 fold"}]}
